Results: patent US10040791B2, “Isoxazole derivative as mutant isocitrate dehydrogenase 1 inhibitor” (Daiichi Sankyo Company, Limited, priority 2014, dated 2018)

How the values were obtained:
IDH1R132C = IDH1R132C (Homo sapiens (Human), UniProt O75874, R132C); assay: Inhibitory activity against IDH1R132C enzyme (NADPH detection, WST-8); assay type: biochemical; conditions: 10 nM, residual NADPH detected with WST-8, read-out: Test Example 1 IDH1 R132C IC50
Method: After transformation of Rosetta 2 (DE3) E. coli, the expression of the protein was induced with IPTG.
While NADPH-derived fluorescence was occasionally monitored, the reaction was terminated by the addition of 5 μL of 0.5 M EDTA before consumption of NADPH. 5 μL of WST-8 reagent (Dojindo Laboratories, #CK04) was further added and mixed therewith. 15 minutes later, the absorbance at 450 nm was measured using a plate reader (PerkinElmer, Inc., EnVision). The observed absorbance value reflects the amount of residual NADPH. From the absorbance data, the enzyme inhibitory activity of each compound at each concentration was calculated and analyzed using medical statistical analysis software GraphPad Prism to calculate an IC50 value.

[1] = system: HT-1080 cells expressing IDH1R132C; assay: 2-HG production inhibitory activity using HT1080 cell; assay type: cell-based, human; conditions: Homo sapiens, HT-1080; 2-HG production, HT1080 cells; read-out: Test Example 3 IC50
Method: Then, 100 μL of growth medium B was added to each well, further 25 μL of a solution of each compound diluted to a predetermined concentration with growth medium B was added to each well, and the cells were incubated at 37° C. for 2 days under 5% CO2. […] Then, 150 μL of ultrapure water was further added to each well, and the mixture was stirred by pipetting and stored at −20° C.
The preserved solutions were thawed at room temperature.

Chain of IDH1R132C (O75874 whole entry R132C): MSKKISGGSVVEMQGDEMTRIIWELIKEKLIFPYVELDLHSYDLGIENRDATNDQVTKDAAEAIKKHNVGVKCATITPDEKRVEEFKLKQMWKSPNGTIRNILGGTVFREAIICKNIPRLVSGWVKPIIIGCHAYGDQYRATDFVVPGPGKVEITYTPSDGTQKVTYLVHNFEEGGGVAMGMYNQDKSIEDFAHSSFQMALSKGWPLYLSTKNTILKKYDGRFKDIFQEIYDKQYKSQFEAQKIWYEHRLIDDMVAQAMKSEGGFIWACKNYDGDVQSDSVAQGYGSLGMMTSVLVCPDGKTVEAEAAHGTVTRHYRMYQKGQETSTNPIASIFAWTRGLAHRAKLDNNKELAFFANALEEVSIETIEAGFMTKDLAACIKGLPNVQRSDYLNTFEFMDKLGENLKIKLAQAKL

| IC50 (IDH1R132C) [nM] | IC50 [1] [nM] | Structure (SMILES) |
| --- | --- | --- |
| 114 | 60 | CC(C)(F)c1onc(-c2c(Cl)cc(Cl)cc2Cl)c1C(=O)n1cc(F)c2c(/C=C/C(=O)O)cccc21 [Example 45, (2E)-3-(3-Fluoro-1-{[5-(2-fluoropropan-2-yl)-3-(2,4,6-trichlorophenyl)-1,2-oxazol-4-yl]carbonyl}-1H-indol-4-yl)prop-2-enoic acid] |
| 267 | 435 | CC(C)(F)c1onc(-c2ccc(Cl)c(F)c2Cl)c1C(=O)n1cc2c3c(cccc31)/C(=C/C(=O)O)CC2 [Example 20, (2E)-[1-{[3-(2,4-Dichloro-3-fluorophenyl)-5-(2-fluoropropan-2-yl)-1,2-oxazol-4-yl]carbonyl}-3,4-dihydrobenzo[cd]indol-5(1H)-ylidene]ethanoic acid] |
| 185 | 37 | Cc1cn(C(=O)c2c(-c3c(Cl)cc(Cl)cc3Cl)noc2C2(C(=O)N(C)C)CCC2)c2cccc(/C=C/C(=O)O)c12 [Example 89, (2E)-3-(1-{[5-[1-(Dimethylcarbamoyl)cyclobutyl]-3-(2,4,6-trichlorophenyl)-1,2-oxazol-4-yl]carbonyl}-3-methyl-1H-indol-4-yl)prop-2-enoic acid] |
| 253 | 248 | CC(C)c1onc(-c2c(Cl)cc(Cl)cc2Cl)c1C(=O)n1ccc2c(/C=C/C(=O)O)cccc21 [Example 26, (2E)-3-(1-{[5-(Propan-2-yl)-3-(2,4,6-Trichlorophenyl)-1,2-oxazol-4-yl]carbonyl}-1H-indol-4-yl)prop-2-enoic acid] |
| 117 | 50 | C=CC(=O)N1CCC(c2onc(-c3c(Cl)cccc3Cl)c2C(=O)n2ccc3c(/C=C/C(=O)O)cccc32)CC1 [Example 102] |
| 164 | 162 | C=CC(=O)N1CC(OC)(c2onc(-c3c(Cl)cc(Cl)cc3Cl)c2C(=O)n2ccc3c(/C=C/C(=O)O)cccc32)C1 [Example 97] |
| 888 | > 2000 | CC(=O)c1cn(C(=O)c2c(-c3c(Cl)cc(Cl)cc3Cl)noc2C(C)(C)F)c2cccc(/C=C/C(=O)O)c12 [Example 64, (2E)-3-(3-Acetyl-1-{[5-(2-fluoropropan-2-yl)-3-(2,4,6-trichlorophenyl)-1,2-oxazol-4-yl]carbonyl}-1H-indol-4-yl)prop-2-enoic acid] |
| 96 | 10 | Cc1cn(C(=O)c2c(-c3c(Cl)cc(Cl)cc3Cl)noc2C2(N(C)C)CC2)c2cccc(/C=C/C(=O)O)c12 [Example 82, (2E)-3-(1-{[5-[1-(Dimethylamino)cyclopropyl]-3-(2,4,6-trichlorophenyl)-1,2-oxazol-4-yl]carbonyl}-3-methyl-1H-indol-4-yl)prop-2-enoic acid] |
| 57 | 24 | COC(C)(C)c1onc(-c2c(Cl)cc(Cl)cc2Cl)c1C(=O)n1ccc2c(/C=C/C(=O)O)cccc21 [Example 31, (2E)-3-(1-{[5-(2-Methoxypropan-2-yl)-3-(2,4,6-trichlorophenyl)-1,2-oxazol-4-yl]carbonyl}-1H-indol-4-yl)prop-2-enoic acid] |
|  | 339 | NC[C@H]1CCN(c2onc(-c3c(Cl)cccc3Cl)c2C(=O)n2ccc3c(/C=C/C(=O)O)cccc32)C1 [Example 139, (2E)-3-[1-({5-[(3R)-3-(Aminomethyl)pyrrolidin-1-yl]-3-(2,6-dichlorophenyl)-1,2-oxazol-4-yl}carbonyl)-1H-indol-4-yl]prop-2-enoic acid] |
| 93 | 390 | CN(C)c1onc(-c2c(Cl)cccc2Cl)c1C(=O)n1ccc2c(/C=C/C(=O)O)cccc21 [Example 133, (2E)-3-(1-{[3-(2,6-Dichlorophenyl)-5-(dimethylamino)-1,2-oxazol-4-yl]carbonyl}-1H-indol-4-yl)prop-2-enoic acid] |
| 151 | 459 | O=C(O)/C=C/c1cccc2c1ccn2C(=O)c1c(-c2c(Cl)cc(Cl)cc2Cl)noc1C1(F)COC1 [Example 6, (2E)-3-(1-{[5-(3-Fluorooxetan-3-yl)-3-(2,4,6-trichlorophenyl)-1,2-oxazol-4-yl]carbonyl}-1H-indol-4-yl)prop-2-enoic acid] |
| 182 | 255 | CC(C)(C)c1onc(-c2c(Cl)cccc2Cl)c1C(=O)n1ccc2c(/C=C/C(=O)O)cccc21 [Example 24, (2E)-3-(1-{[5-(tert-Butyl)-3-(2,6-dichlorophenyl)-1,2-oxazol-4-yl]carbonyl}-1H-indol-4-yl)prop-2-enoic acid] |
| 81 | 186 | Cn1cc(C(=O)c2c(-c3c(Cl)cc(Cl)cc3Cl)noc2C2(C)CC2)c2cccc(/C=C/C(=O)O)c21 [Example 165] |
| 160 | 128 | COC(C)(C)c1onc(-c2c(Cl)cccc2Cl)c1C(=O)n1ccc2c(/C=C/C(=O)O)cccc21 [Example 27, (2E)-3-(1-{[3-(2,6-Dichlorophenyl)-5-(2-methoxypropan-2-yl)-1,2-oxazol-4-yl]carbonyl}-1H-indol-4-yl)prop-2-enoic acid] |
| 1040 |  | NC[C@@H]1CCN(c2onc(-c3c(Cl)cccc3Cl)c2C(=O)n2ccc3c(/C=C/C(=O)O)cccc32)C1 [Example 140] |
| 118 | 138 | CC1(c2onc(-c3c(Cl)cccc3Cl)c2C(=O)n2ccc3c(/C=C/C(=O)O)cccc32)COC1 [Example 75, (2E)-3-(1-{[3-(2,6-Dichlorophenyl)-5-(3-methyloxetan-3-yl)-1,2-oxazol-4-yl]carbonyl}-1H-indol-4-yl)prop-2-enoic acid] |
| 99 | 9 | CNC(C)(C)c1onc(-c2c(Cl)cc(Cl)cc2Cl)c1C(=O)n1cc2c3c(cccc31)/C(=C/C(=O)O)CC2 [Example 85, (2E)-[1-({5-[2-(Methylamino)propan-2-yl]-3-(2,4,6-trichlorophenyl)-1,2-oxazol-4-yl}carbonyl)-3,4-dihydrobenzo[cd]indol-5(1H)-ylidene]ethanoic acid] |
| 158 | 61 | Cc1cn(C(=O)c2c(-c3c(Cl)cc(Cl)cc3Cl)noc2C2(CN(C)C)CCC2)c2cccc(/C=C/C(=O)O)c12 [Example 88, (2E)-3-(1-{[5-{1-[(Dimethylamino)methyl]cyclobutyl}-3-(2,4,6-trichlorophenyl)-1,2-oxazol-4-yl]carbonyl}-3-methyl-1H-indol-4-yl)prop-2-enoic acid] |
| 114 | 350 | Cc1cn(C(=O)c2c(-c3c(Cl)ccc(F)c3Cl)noc2C(C)C)c2cccc(/C=C/C(=O)O)c12 [Example 30, (2E)-3-(1-{[3-(2,6-Dichloro-3-fluorophenyl)-5-(propan-2-yl)-1,2-oxazol-4-yl]carbonyl}-3-methyl-1H-indol-4-yl)prop-2-enoic acid] |
| 280 | 254 | Cc1cc(Cl)cc(Cl)c1-c1noc(C(C)(C)C)c1C(=O)n1ccc2c(/C=C/C(=O)O)cccc21 [Example 41, (2E)-3-(1-{[5-(tert-Butyl)-3-(2,4-dichloro-6-methylphenyl)-1,2-oxazol-4-yl]carbonyl}-1H-indol-4-yl)prop-2-enoic acid] |
|  | 42 | CCC1(c2onc(-c3c(Cl)cccc3Cl)c2C(=O)n2ccc3c(/C=C/C(=O)O)cccc32)COC1 [Example 5, (2E)-3-(1-{[3-(2,6-Dichlorophenyl)-5-(3-ethyloxetan-3-yl)-1,2-oxazol-4-yl]carbonyl}-1H-indol-4-yl)prop-2-enoic acid] |
